Test results taken from article PMC4775916 (Antimicrobial Agents and Chemotherapy, 2016).
“And” between values parts separate entries of the source, which are not always exact repeats. Identical values can stand only once. Like-named read-outs stand apart in the source and are kept apart here.

Assays:
VIM-5 [1] = system: VIM-5; set-up: method as in Garcar et al. (6); details: previous studies ref Garcar et al. (6), cited from earlier work
VIM-2 [2] = molecular target: T1, VIM-2 (Escherichia coli, UniProt Q5U7L7); format: biochemical
T1 construct: His6 (N, cleaved yes); made in house
Method: (§1) The hydrolysis of a representative panel of β-lactam substrates was monitored at their respective absorbance wavelengths. The wavelengths and extinction coefficients used were previously described ([34]). The assays were carried out using 50 mM HEPES buffer (pH 7.2) supplemented with 1 μg/ml bovine serum albumin (BSA), 1 μM ZnSO4, and 0.01% Triton X-100. In the case of VIM-1, C-terminally His6-tagged VIM-1 was used for kinetic analyses. Note that no differences were observed between the activities of untagged VIM-1 and C-terminally His6-tagged VIM-1 for the selected antibiotics (data not shown). The initial rates were obtained from the changes in absorbance at various substrate concentrations. Steady-state kinetic parameters (Km and kcat) were determined by fitting the initial velocity data to the Michaelis-Menten equation using GraphPad Prism 5.01 software (see Table S4 in the supplemental material).

VIM-38 = molecular target: T2, VIM-38 (Pseudomonas aeruginosa, UniProt A0A0F7KYQ8, A128K/A265V/E202A/H201L/K257T/S205R); experiment: Steady-state kinetics of β-lactam substrate hydrolysis; format: biochemical; details: 50 mM HEPES pH 7.2, apparent for ampicillin and ceftazidime; for Km: read-out: Mean Km ± SD VIM-38
T2 construct: The N- and C- terminal residues of the mature enzymes are labelled 26; His6 with HRV3C cleavage site (pET-28a) (N, cleaved yes); made in house; host or cells: E. coli BL21(DE3)
Method: as §1

VIM-5 [3] = molecular target: T3, VIM-5 (Pseudomonas aeruginosa, UniProt A0A0F7KYQ8, A128K/E202A/H201L/K257T/S205R); experiment: as above; format: biochemical; details: 50 mM HEPES pH 7.2, apparent for ampicillin and ceftazidime; for Km: read-out: Mean Km ± SD VIM-5
T3 construct: His6 with HRV3C cleavage site (pET-28a) (N, cleaved yes); made in house; host or cells: E. coli BL21(DE3)
Method: as §1

VIM-1 [4] = molecular target: T4, VIM-1 (Pseudomonas aeruginosa, UniProt A0A0F7KYQ8); experiment: as above; format: biochemical
T4 construct: The N- and C- terminal residues of the mature enzymes are labelled 26; made in house
Method: as §1

VIM-1 [5] = molecular target: T4, VIM-1; details: previous studies ref Franceschini et al. (4), cited from earlier work; for Km: read-out: Km VIM-1 (previous study)
VIM-2 [6] = system: VIM-2; set-up: method as in Poirel et al. (5); details: previous studies ref Poirel et al. (5), cited from earlier work
[7] = 50 mM HEPES pH 7.2; apparent for ampicillin and ceftazidime
[8] = C-terminally His6-tagged VIM-1; 50 mM HEPES pH 7.2; apparent for ampicillin and ceftazidime

SMILES: CC1(C)S[C@@H]2[C@H](NC(=O)[C@H](N)c3ccccc3)C(=O)N2[C@H]1C(=O)O [Ampicillin]
- kcat VIM-5 (previous study) (VIM-5 [1]): 14 s⁻¹
- kcat VIM-2 (VIM-2 [2]; [7]): 180 s⁻¹
- Km (VIM-2 [2]; 50 mM HEPES pH 7.2; apparent for ampicillin and ceftazidime; read-out: Mean Km ± SD VIM-2): > 500 µM
- Km (VIM-2 [2]; read-out: Mean Km ± SD VIM-2; 50 mM HEPES pH 7.2; apparent for ampicillin and ceftazidime): > 300 µM
- kcat VIM-38 (VIM-38): 170 s⁻¹
- Km (VIM-38): 380 ± 80 µM
- Km (VIM-38; listed as ampicillin): > 300 µM
- kcat VIM-5 (VIM-5 [3]): 230 s⁻¹
- Km (VIM-5 [3]): > 1000 µM
- Km (VIM-5 [3]; listed as ampicillin): > 300 µM
- kcat VIM-1 (VIM-1 [4]; [8]): 122 s⁻¹ and 120 s⁻¹
- Km (VIM-1 [4]; C-terminally His6-tagged VIM-1; 50 mM HEPES pH 7.2; apparent for ampicillin and ceftazidime; read-out: Mean Km ± SD VIM-1): > 1000 µM
- Km (VIM-1 [4]; read-out: Mean Km ± SD VIM-1; C-terminally His6-tagged VIM-1; 50 mM HEPES pH 7.2; apparent for ampicillin and ceftazidime): > 300 µM
- kcat VIM-1 (previous study) (VIM-1 [5]): 37 s⁻¹
- Km (VIM-1 [5]): 917 µM

SMILES: CC(=O)OCC1=C(C(=O)O)N2C(=O)[C@@H](NC(=O)Cc3cccs3)[C@H]2SC1 [Cephalothin]
- kcat VIM-38 (VIM-38): 120 s⁻¹
- Km (VIM-38): 60 ± 8 µM
- kcat VIM-5 (VIM-5 [3]): 200 s⁻¹
- Km (VIM-5 [3]): 100 ± 8 µM

SMILES: C[C@@H](O)[C@H]1C(=O)N2C(C(=O)O)=C(S[C@@H]3CN[C@H](C(=O)N(C)C)C3)[C@H](C)[C@H]12 [Meropenem]
- kcat VIM-5 (previous study) (VIM-5 [1]): 2.4 s⁻¹
- Km (VIM-5 [1]; read-out: Km VIM-5 (previous study)): 49 µM
- kcat VIM-2 (VIM-2 [2]; [7]): 7 s⁻¹
- kcat VIM-38 (VIM-38): 10 s⁻¹
- Km (VIM-38): 30 ± 4 µM
- kcat VIM-5 (VIM-5 [3]): 16 s⁻¹ and 20 s⁻¹
- Km (VIM-5 [3]): 70 ± 10 µM
- kcat VIM-1 (VIM-1 [4]; [8]): 50 s⁻¹
- Km for VIM-1 fold higher than that for VIM-2 (VIM-1 [4]; VIM-1 versus VIM-2): > 6 fold
- kcat for VIM-1 fold higher than those for VIM-2 (VIM-1 [4]; VIM-1 versus VIM-2): > 7 fold
- kcat VIM-1 (previous study) (VIM-1 [5]): 13 s⁻¹
- Km (VIM-1 [5]): 48 µM
- kcat VIM-2 (previous study) (VIM-2 [6]): 1.4 s⁻¹
- Km (VIM-2 [6]; read-out: Km VIM-2 (previous study)): 5 µM
